Data taken from ChEMBL document CHEMBL3045222, “Synthesis of novel benzimidazole derivatives: as potent analgesic agent” (2013).

Experiments:
Type in all cases: functional
[1] = test system: Rattus norvegicus; assay: Analgesic activity in Rattus norvegicus (rat) assessed as time taken to withdraw tail in response to heat stress at 50 mg/kg, po after 120 min by tail flick method based analgesiometer analysis (reference value: 5.16 +/-0.31 secs)
[2] = test system: Rattus norvegicus; assay: Analgesic activity in Rattus norvegicus (rat) assessed as time taken to withdraw tail in response to heat stress at 50 mg/kg, po after 90 min by tail flick method based analgesiometer analysis (reference value: 6.00 +/-0.36 secs)
[3] = test system: Rattus norvegicus; assay: Analgesic activity in Rattus norvegicus (rat) assessed as time taken to withdraw tail in response to heat stress at 50 mg/kg, po after 60 min by tail flick method based analgesiometer analysis (reference value: 6.5 +/-0.22 secs)
[4] = test system: Rattus norvegicus; assay: Analgesic activity in Rattus norvegicus (rat) assessed as time taken to withdraw tail in response to heat stress at 50 mg/kg, po after 30 min by tail flick method based analgesiometer analysis (reference value: 5.50 +/-0.43 secs)

Structure (SMILES)	Time [1] [s]	Time [2] [s]	Time [3] [s]	Time [4] [s]
COc1ccc2nc(-c3c(O)ccc4ccccc34)n(C)c2c1	6.83	8.5	10.33	10.66
CCCCn1c(-c2c(O)ccc3ccccc23)nc2ccc(OC)cc21	6.66	7.66	9.33	8.66
Cn1c(-c2c(O)ccc3ccccc23)nc2ccc([N+](=O)[O-])cc21	7	6.83	11.5	10.5
CCCCn1c(-c2c(O)ccc3ccccc23)nc2ccc([N+](=O)[O-])cc21	4.83	6	6.5	6.66
Cn1c(-c2c(O)ccc3ccccc23)nc2ccccc21	5.16	6	7	6.5
CCCCn1c(-c2c(O)ccc3ccccc23)nc2ccccc21	6.83	9.66	10.5	10.66
O=C(O)Cc1ccccc1Nc1c(Cl)cccc1Cl [DICLOFENAC]	7	10	11.66	10.83
